# Experimental data as given in US8847018B2, “Plants tolerant to HPPD inhibitor herbicides” (Bayer CropScience AG, priority 2009, dated 2014).
# Several values for one entry are separate records, joined by “and”; a condition that tells them apart may be missing. Identical values can stand only once. Entries after “also recorded” stand apart in the source; their conditions may differ.
# Key:
# [1] = test system: tobacco plants containing FMP23e (HPPD FMP23); experiment: Glasshouse trial, herbicidal damage on T1 tobacco; type: in vivo, Nicotiana tabacum; conditions: 7 DAT, 100 g AI/ha spray; FMP23e line 188, single T1 plants
# Protocol: T0 Tobacco plants containing either the gene from Arabidopsis coding for HPPD or the gene FMP22e from Rhodococcus sp. (strain RHA1), isolate ro03041 coding for FMP22 HPPD, or the gene FMP23e from Rhodococcus sp. (strain RHA1), isolate ro02040 mentioned above (Example 3), were transferred to the glasshouse (28/20° C.), to develop further and produce seeds. Those seeds were harvested and put on soil (ED73 mixed with sand and osmocote Pro) to germinate in the glasshouse (28/20° C.). Three to four weeks later, plantlets were transferred to single pots containing the soil mentioned above. Two weeks later, plants of a size 4-6 cm diameter were sprayed with either • tembotrione at 100 gAl/ha prepared from a WP20 (wettable powder 20%) formulation supplemented with ammonium sulfate and methyl ester raps oil, or • isoxaflutole at 100 gAl/ha prepared from a WP20 formulation supplemented with ammonium sulfate and methyl ester raps oil, or • bicyclopyrone at 100 gAl/ha prepared from a WP20 formulation supplemented with ammonium sulfate and methyl ester raps oil, or • “blind formulation” made from a WP20 formulation without active ingredient (Al) supplemented with ammonium sulfate and methyl ester raps oil, and were then transferred to a growth chamber with adequate light conditions (20000 Lux).
# [2] = test system: soybean plants expressing the FMP22 HPPD protein; experiment: Greenhouse treatment of soybean events with tembotrione; type: in vivo; conditions: one FMP22 event; 100 g AI/ha, ten days after application
# Protocol: (§1) Plants containing the transgene were then sprayed with HPPD inhibitor herbicides, as for example with tembotrione at a rate of 100 g Al/ha. Ten days after the application the symptoms due to the application of the herbicide were evaluated and compared to the symptoms observed on a wild type plants under the same conditions.
# (§2) Concerning FMP22, one event expressing the FMP22 HPPD protein have been generated from the green shoots of above and were transferred to the greenhouse. Four weeks after acclimation, i.e. plants at a developmental stage of 3-4 internodes were treated with 100 g Al/ha tembotrione prepared from a WP 20 formulation supplemented with ammonium sulfate and methyl ester raps oil. Ten days after application, the symptoms caused by the application of the HPPD inhibitor herbicide were evaluated and compared to the symptoms observed on treated non-transgenic wild-type soybean plants. […] Concerning FMP23, six events expressing the FMP23 HPPD protein have been generated from the green shoots of above and were transferred to the greenhouse. […] Ten days after application, the symptoms caused by the application of the HPPD inhibitor herbicide were evaluated and compared to the symptoms observed on treated non-transgenic wild-type soybean plants.
# [3] = test system: soybean plants expressing the FMP23 HPPD protein; experiment: as above; type: in vivo; conditions: six FMP23 events; 100 g AI/ha, ten days after application
# Protocol: as §1, §2
# [4] = test system: T0 tobacco plants containing FMP22t; experiment: Response of T0 tobacco plants to tembotrione; type: in vivo, Nicotiana tabacum; conditions: 100 g AI/ha, two weeks after treatment
# Protocol: (§3) As an example, rooted plants containing the T-DNA PromCaMV35S-OTP-HIS6-FMP22t-TerCaMV35S or containing the T-DNA PromCaMV35S-OTP-HIS6-FMP23t-TerCaMV35S, are transferred to the greenhouse under standard growth conditions. Following a period of acclimation of two weeks, the T0 plants are treated with a mixture containing 100 g tembotrione/ha prepared from a WP20 (wettable powder 20%) formulation supplemented with ammonium sulfate and methyl ester raps oil.
# (§4) Two weeks after the treatment, the symptoms due to the application of the herbicides are evaluated. The plants are classified in four categories. The treated plants evaluated as “0” are looking like the untreated tobacco plants. The plants evaluated as “1” display temporarily light bleaching phenotype due to the application of the herbicides. The plants evaluated as “2” display permanent light to strong bleaching symptoms. Finally the plants evalutated as “3” are looking like wild type tobacco plants submitted to the same treatment.
# [5] = test system: T0 tobacco plants containing FMP23t; experiment: Response of T0 tobacco plants to tembotrione; type: in vivo, Nicotiana tabacum; conditions: 100 g AI/ha, two weeks after treatment
# Protocol: as §3, §4
smiles,measurement,setting,value
"CS(=O)(=O)c1ccc(C(=O)C2C(=O)CCCC2=O)c(Cl)c1COCC(F)(F)F [Tembotrione, 2-[2-chloro-4-(methylsulfonyl)-3-[(2,2,2,-tri-fluoroethoxy)methyl]benzoyl]-1,3-cyclo-hexanedione]",% injury,[1],0% and 5%
same,symptoms caused by the herbicide,[2],transitory light bleaching symptoms but recovered 14 days after tembotrione application
same,symptoms caused by the herbicide,[3],One of the six events didn't show any bleaching phenotype; also recorded: One event showed transitory light bleaching symptoms but recovered 14 days after tembotrione application; also recorded: remaining four events exhibited the bleaching like non-transgenic wild-type soybean plant
same,number of plants in category 0 (looking like untreated tobacco plants),[4],4
same,number of plants in category 1 (temporarily light bleaching),[4],2
same,number of plants in category 2 (permanent light to strong bleaching),[4],5
same,number of plants in category 3 (like treated wild type tobacco plants),[4],3
same,number of plants in category 0 (looking like untreated tobacco plants),[5],5
same,number of plants in category 3 (like treated wild type tobacco plants),[5],4
